Experimental data: US20260072027A1, “Peptides And Method” (Queen Mary University of London, priority 2022, published 2026)
Where no end group is shown, it is not given here.

System: serum IgG autoantibodies
Experiment: ELISA for autoantibody detection: serum antibody binding to native and oxPTM insulin peptides
Parameters: species or system human
Conditions: for % binders, Healthy controls / Mean ± SEM (absorbance, OD), Healthy controls / % binders, Type 1 diabetes: Study cohort 1; for % binders, Healthy controls / Mean ± SEM (absorbance, OD), Healthy controls / % binders, Type 1 diabetes / Mean ± SEM (absorbance, OD), Type 1 diabetes: in house modifications; for % binders, Type 1 diabetes: cut-off = mean of healthy controls to Nt-INSP plus 3 SEM; for Mean ± SEM (absorbance, OD), Type 1 diabetes: Study cohort 1 sera; for Antibody reactivity of serum samples (in words): ELISA; for type 1 diabetes binders (IgG autoantibody reactivity): Study cohort 2, N = 18
Procedure: ELISA for autoantibody detection. The ELISA analysis of Nt-INS and oxPTM-INS autoantibodies was performed as previously described [18](detailed in ESM methods, ELISA assay for antibody detection).
Statistical analyses. Statistical analyses were performed using Prism Software 9.0 (GraphPad, San Diego, CA, USA). Cut-off points of positivity (binders) in the antibody ELISA for each peptide were defined by the mean of optical absorbance (O.D) of healthy controls to the corresponding Nt-INSP plus three times the standard error of the mean (SEM). Specificity and sensitivity were evaluated by receiver operating characteristic (ROC) curve analysis. Area under the curve (AUC) is reported as absolute value and was tested for equality according to DeLong et al. Differences in antibody levels and T-cell stimulation indices (SI) between groups were tested by the One way ANOVA or Student's t-tests as appropriate. Correlation analyses were tested by Pearson or Spearman's test, as appropriate. Categorical analyses were performed by Chi-square or McNemar's tests, as appropriate. For each set of experiments, p values were adjusted for multiple comparison using the Holm-Sidak's test. Hierarchical cluster and Principal Component Analysis (PCA) was done using Clustvis software (https://biit.cs.ut.ee/clustvis/) and Prism Software 9.0, respectively.
Antibody reactivity of type 1 diabetes serum against the candidate oxPTM-INSP. Identified peptide candidates were synthesised and exposed to either HOCl or ^●OH to generate oxPTM-INSPs that were first assessed by TOF-MS/ES+TIC to confirm modification (FIG. 17). Antibody response against native INSPs (Nt-INSPs) and oxPTM-INSPs was evaluated by ELISA using sera from Study cohort 1.
ESM Methods ELISA assay for antibody detection. The ELISA analysis of native (Nt-INS) and modified insulin (oxPTM-INS) was performed as previously described. Briefly, the ELISA plate was coated overnight at 4° C. with 100 μl per well of modified or native insulin in 0.05 M carbonate/bicarbonate buffer pH 9.6 at 10 μg/ml. The next day, the plates were washed 3 times with 0.1% Tween PBS, followed by blocking for 2 hours at room temperature with 200 μl per well of 5% BSA in 0.1% Tween PBS. After washing, 100 μl of 1:200-diluted serum samples in 5% BSA-0.1% Tween PBS were added for additional 2 hours incubation. ELISA plates were then washed 3 times with 0.1% Tween PBS followed by probing with anti-human IgG horse radish peroxidase conjugated (HRP, Sigma) at 1:1,000 dilution in 5% BSA-0.1% Tween PBS for another 1.5 hours incubation. The ELISA plates were washed, and 100 μg/ml TMB substrate in 0.1M sodium acetate pH 6.0 plus 2 μl/10 ml of H2O2, were added. Subsequently, the reaction was stopped with 20% v/v sulphuric acid. The optical density (O.D.) was measured at 450 nm using a GENios plate reader and Magellan software (TECAN, Dorset, UK).

Substance	% binders, Healthy controls [%]	Mean ± SEM (absorbance, OD), Healthy controls	% binders, Type 1 diabetes [%]	Mean ± SEM (absorbance, OD), Type 1 diabetes	Antibody reactivity of serum samples (in words)	further results
INSP-4 oxPTM-•OH: INSP-4 peptide oxidised in house by hydroxyl radical (LVEALYLVCGERGFFYTPKT; also: oxidised by hydroxyl radical, modified residues not defined)	27	0.344 ± 0.022	58	0.539 ± 0.068	–	–
INSP-6 oxPTM-HOCI: INSP-6 peptide oxidised in house by HOCl (ERGFFYTPKT; not fully specified (N-terminus); also: oxidised by HOCl, modified residues not defined)	25	0.312 ± 0.019	43	0.391 ± 0.013	–	–
INSP-6 oxPTM-•OH: INSP-6 peptide oxidised in house by hydroxyl radical (ERGFFYTPKT; not fully specified (N-terminus); also: oxidised by hydroxyl radical, modified residues not defined)	12	0.280 ± 0.020	83	0.461 ± 0.013	–	Mean ± SEM (absorbance, OD), Type 1 diabetes (listed as ●OH-modified oxPTM-INSP-6): 0.461±0.013
LVEALYLVCG	–	–	–	–	No reactivity	–
LVEALYLVCGER [INSP-2, insulin B:11-22 peptide]	–	–	–	–	No significant reactivity	–
Nt-INS: native human recombinant insulin	–	–	–	–	–	type 1 diabetes binders (IgG autoantibody reactivity): 33.3%
YLVCGERGFF [INSP-1, insulin B:16-25 peptide]	–	–	–	–	No significant reactivity	–
^●OH-INS: insulin modified by hydroxyl radical	–	–	–	–	–	type 1 diabetes binders (IgG autoantibody reactivity): 50%
